Test results reported in paper PMC8284931 (Journal of biomolecular screening, 2012).
Where a name gives a salt, the structure may show the parent alone. Read-outs that look alike come from different tables or passages of the source.

Assays:
E. coli cells = assay: Toxicity assay; details: MTS, 50 μg/ml, positive control
[1] = molecular target: T1, mammalian GUS purified from Bovine taurus liver (Bos taurus, UniProt A3KMY8); assay: B. taurus GUS enzyme assay; format: biochemical; details: for activity against purified mammalian GUS: result in words
T1 sequence (A3KMY8 1-652): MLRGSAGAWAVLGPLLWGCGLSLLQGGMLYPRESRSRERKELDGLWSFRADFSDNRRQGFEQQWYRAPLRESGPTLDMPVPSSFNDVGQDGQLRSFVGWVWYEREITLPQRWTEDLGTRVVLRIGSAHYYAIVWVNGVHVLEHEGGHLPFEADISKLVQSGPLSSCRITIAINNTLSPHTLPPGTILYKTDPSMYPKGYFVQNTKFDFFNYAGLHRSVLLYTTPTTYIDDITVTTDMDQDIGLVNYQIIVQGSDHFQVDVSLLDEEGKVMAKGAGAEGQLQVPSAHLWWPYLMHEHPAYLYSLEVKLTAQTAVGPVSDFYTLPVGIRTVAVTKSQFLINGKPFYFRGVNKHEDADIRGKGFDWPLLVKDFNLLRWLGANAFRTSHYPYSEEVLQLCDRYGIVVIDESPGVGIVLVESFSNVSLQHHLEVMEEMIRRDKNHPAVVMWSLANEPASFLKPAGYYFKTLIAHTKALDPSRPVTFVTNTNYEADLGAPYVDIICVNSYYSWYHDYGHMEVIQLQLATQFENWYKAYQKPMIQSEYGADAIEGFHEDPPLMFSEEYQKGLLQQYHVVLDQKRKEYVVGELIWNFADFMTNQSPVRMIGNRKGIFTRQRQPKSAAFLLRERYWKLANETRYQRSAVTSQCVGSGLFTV

[2] = molecular target: purified E. coli GUS enzyme (Escherichia coli, UniProt P05804); assay: E. coli GUS enzyme assay; format: biochemical
Chain of purified E. coli GUS enzyme (P05804 whole entry): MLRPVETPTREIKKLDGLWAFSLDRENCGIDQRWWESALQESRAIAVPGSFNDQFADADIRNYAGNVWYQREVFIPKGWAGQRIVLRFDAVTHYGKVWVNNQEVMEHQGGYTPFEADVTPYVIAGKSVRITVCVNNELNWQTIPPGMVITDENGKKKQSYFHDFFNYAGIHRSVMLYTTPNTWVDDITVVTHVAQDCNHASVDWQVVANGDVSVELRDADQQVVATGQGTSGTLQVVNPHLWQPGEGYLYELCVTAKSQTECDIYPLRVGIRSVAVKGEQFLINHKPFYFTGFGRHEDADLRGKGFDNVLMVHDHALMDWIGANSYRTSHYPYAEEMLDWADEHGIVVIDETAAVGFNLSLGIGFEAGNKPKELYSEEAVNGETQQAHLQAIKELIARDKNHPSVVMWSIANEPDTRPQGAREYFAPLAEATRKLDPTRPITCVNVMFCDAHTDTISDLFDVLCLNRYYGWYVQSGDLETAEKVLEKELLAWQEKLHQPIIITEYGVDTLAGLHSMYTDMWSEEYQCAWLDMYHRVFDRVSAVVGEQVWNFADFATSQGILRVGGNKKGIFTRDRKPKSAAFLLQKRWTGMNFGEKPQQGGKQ

[3] = test system: MAO (MAO-A, MAO-B or total activity); details: read-out: IC50 for MAO; depending on subclass of MAO-A or MAO-B, or total activity; reported, no reference given; cited from earlier work
P-glycoprotein = details: result in words; cited from earlier work
[4] = reported, no reference given, cited from earlier work
[5] = molecular target: endogenous GUS in living intact E. coli (DH5α) (Escherichia coli, UniProt P05804); assay: E. coli cell-based GUS activity assay; details: IC50 shift; for fold less potent in cell-based assay compared to E. coli GUS enzyme assay: less potent in cells
Chain of endogenous GUS in living intact E. coli (DH5α) (P05804 whole entry): as above

in vitro = details: E. coli

## NC[C@H]1O[C@H](O[C@H]2[C@H](O)[C@@H](O[C@H]3O[C@H](CO)[C@@H](O)[C@H](N)[C@H]3O)[C@H](N)C[C@@H]2N)[C@H](O)[C@@H](O)[C@@H]1O [Kanamycin, kanamycin]
E. coli cells
  reduction of activity in viability assay: over 90%

## Cc1cc(C(=O)NNCc2ccccc2)no1 [Isocarboxazid, isocarboxazid]
[1]
  IC50: > 100000 nM
  activity against purified mammalian GUS: no significant activity

## NNCCc1ccccc1 [Phenelzine, phenelzine]
[2]; single point, 10 μM compound, high throughput GUS enzyme assay, 10 µM
  inhibition in Prestwick collection screen: > 50%
[3]
  IC50: 70 to 900 nM

## Clc1ccc2c(c1)C(N1CCNCC1)=Nc1ccccc1O2 [Amoxapine, amoxapine]
P-glycoprotein
  inhibition of P-glycoprotein: potent non-competitive inhibitors
[4]; converted from μg/ml
  normal blood levels: 54 to 669 nM
[4]
  normal blood levels: 0.017 to 0.21 µg/mL

## OC(c1cc(C(F)(F)F)nc2c(C(F)(F)F)cccc12)C1CCCCN1 (stereo not drawn) [Mefloquine, mefloquine hydrochloride]
[5]
  fold less potent in cell-based assay compared to E. coli GUS enzyme assay: over 4.9 fold
[5]; listed as mefloquine
  fold less potent in cell-based assay compared to E. coli GUS enzyme assay: 5 fold
In vitro
  viability at 2 h, 10 µM: 100%

## O=C(CCNNC(=O)c1ccncc1)NCc1ccccc1 [Nialamide, nialamide]
[1]
  activity against purified mammalian GUS: no significant activity
[5]; more potent in cells
  fold more potent in cell-based assay compared to E. coli GUS enzyme assay: 4 fold

## CN1CCN(C2=Nc3ccccc3Oc3ccc(Cl)cc32)CC1 [Loxapine, loxapine]
[2]; E. coli GUS enzyme assay, methyl group on the piperazine ring
  loss in potency versus amoxapine: > 250 fold
P-glycoprotein
  inhibition of P-glycoprotein: potent non-competitive inhibitors
